Measurements published in US20050282743A1, “Molecular interactions in cells” (Arbor Vita Corporation, priority 2001, published 2005).
Ends that are not written are not given here. Peptide text beside a SMILES is read from it. * marks the point of attachment. Biotin = O=C1N[C@H]2[C@H](CS[C@H]2CCCCC(=O)*)N1

Experiments:
Assay in all cases: G' assay (10 uM PL peptide), results of TABLE 7 and TABLE 12
Assay type in all cases: binding
[1] = molecular target: T1, PDZ protein (GST-PDZ fusion) (Homo sapiens, UniProt P53667); details: PDZ LIMK1, PDZ Domain 1
T1 construct: made in house; host or cells: E. coli (DH5alpha, BL21 or JM109)
T1 sequence (P53667 whole entry, the tested form may be a part): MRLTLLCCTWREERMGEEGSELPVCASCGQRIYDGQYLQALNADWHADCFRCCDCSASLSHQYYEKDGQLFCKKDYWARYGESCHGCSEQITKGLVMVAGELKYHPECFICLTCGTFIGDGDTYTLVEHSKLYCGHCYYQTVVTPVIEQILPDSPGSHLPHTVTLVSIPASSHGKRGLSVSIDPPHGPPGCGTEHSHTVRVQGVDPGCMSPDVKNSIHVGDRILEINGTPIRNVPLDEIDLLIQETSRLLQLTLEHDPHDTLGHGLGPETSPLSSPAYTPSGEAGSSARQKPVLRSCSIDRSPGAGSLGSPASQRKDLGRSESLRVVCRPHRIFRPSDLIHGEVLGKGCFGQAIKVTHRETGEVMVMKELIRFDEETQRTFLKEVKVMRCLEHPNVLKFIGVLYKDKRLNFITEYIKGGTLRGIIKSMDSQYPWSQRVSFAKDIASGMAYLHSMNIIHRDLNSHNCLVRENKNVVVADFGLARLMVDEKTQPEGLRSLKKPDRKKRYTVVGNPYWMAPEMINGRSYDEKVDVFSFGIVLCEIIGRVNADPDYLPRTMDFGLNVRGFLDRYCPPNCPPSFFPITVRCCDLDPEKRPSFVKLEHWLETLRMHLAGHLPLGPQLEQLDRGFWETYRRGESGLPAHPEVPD
In short: (§1)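 Biotinylated PL peptides at 10 uM (vs 20 uM in G^0 assay) bound to GST-PDZ fusions; PDZ protein at 5 ug/ml unless another concentration listed. Bound peptide read as A450 nm, classified 0–5 (0 = A450 0; 5 = A450 >4 repeated).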

[2] = molecular target: T2, PDZ protein (GST-PDZ fusion) (Homo sapiens, UniProt Q9NRD5); details: PDZ PICK1, PDZ Domain 1
T2 construct: made in house; host or cells: E. coli (DH5alpha, BL21 or JM109)
T2 sequence (Q9NRD5 whole entry, the tested form may be a part): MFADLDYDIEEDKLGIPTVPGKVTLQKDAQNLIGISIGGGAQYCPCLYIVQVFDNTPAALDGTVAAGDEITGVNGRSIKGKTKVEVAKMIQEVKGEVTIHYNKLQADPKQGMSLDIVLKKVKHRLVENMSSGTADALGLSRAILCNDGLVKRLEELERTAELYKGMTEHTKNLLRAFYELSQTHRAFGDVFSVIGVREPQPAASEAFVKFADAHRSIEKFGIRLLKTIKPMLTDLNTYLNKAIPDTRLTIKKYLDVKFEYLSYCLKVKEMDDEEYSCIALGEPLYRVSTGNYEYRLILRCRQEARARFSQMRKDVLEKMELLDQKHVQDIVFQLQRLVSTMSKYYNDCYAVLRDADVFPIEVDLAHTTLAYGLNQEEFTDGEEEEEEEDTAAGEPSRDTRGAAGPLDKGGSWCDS
In short: as §1

[3] = molecular target: T3, PDZ protein (GST-PDZ fusion) (Homo sapiens, UniProt Q9UQ26); details: PDZ KIAA0751(L), PDZ Domain 1
T3 construct: made in house; host or cells: E. coli (DH5alpha, BL21 or JM109)
T3 sequence (Q9UQ26 1-1411): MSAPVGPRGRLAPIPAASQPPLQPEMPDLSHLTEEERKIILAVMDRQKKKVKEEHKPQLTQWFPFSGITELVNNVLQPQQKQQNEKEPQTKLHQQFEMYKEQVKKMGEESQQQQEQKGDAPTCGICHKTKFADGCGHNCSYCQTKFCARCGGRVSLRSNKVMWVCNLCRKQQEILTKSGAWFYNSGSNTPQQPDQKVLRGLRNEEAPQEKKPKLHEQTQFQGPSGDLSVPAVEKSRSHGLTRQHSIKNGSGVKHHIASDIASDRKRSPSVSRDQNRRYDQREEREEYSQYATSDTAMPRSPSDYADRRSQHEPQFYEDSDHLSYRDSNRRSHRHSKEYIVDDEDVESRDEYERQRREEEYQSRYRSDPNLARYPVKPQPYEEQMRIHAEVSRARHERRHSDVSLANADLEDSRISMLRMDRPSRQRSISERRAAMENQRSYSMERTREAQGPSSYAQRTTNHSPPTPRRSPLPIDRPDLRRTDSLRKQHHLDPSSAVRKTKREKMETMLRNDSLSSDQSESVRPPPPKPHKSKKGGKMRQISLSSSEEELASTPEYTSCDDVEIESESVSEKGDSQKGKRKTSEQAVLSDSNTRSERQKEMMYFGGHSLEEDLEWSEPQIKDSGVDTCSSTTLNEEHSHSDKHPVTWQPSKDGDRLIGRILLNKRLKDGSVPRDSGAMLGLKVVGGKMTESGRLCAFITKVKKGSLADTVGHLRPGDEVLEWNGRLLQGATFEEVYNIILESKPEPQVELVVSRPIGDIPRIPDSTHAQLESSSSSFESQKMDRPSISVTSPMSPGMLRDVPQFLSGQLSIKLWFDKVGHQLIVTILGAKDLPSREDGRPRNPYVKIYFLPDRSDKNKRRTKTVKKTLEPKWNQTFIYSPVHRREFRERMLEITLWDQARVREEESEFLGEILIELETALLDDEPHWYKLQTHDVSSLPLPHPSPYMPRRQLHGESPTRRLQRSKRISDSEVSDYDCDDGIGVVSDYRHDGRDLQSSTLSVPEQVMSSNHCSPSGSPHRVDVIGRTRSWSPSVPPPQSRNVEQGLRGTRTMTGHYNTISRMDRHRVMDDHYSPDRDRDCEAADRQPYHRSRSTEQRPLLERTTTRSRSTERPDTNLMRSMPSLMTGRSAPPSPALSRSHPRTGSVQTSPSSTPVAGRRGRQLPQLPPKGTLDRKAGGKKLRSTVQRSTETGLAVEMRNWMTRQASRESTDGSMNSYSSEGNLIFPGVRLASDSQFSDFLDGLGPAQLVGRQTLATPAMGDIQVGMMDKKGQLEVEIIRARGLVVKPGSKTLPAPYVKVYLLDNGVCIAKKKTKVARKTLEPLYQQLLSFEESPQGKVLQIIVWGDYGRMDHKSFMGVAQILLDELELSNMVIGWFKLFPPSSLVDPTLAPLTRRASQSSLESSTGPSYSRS
In short: as §1

Row | Molecule | Classification [3] | Classification [1] | Classification [2]
1 | CSCC[C@H](NC(=O)[C@H](C)NC(=O)[C@H](CCCNC(=N)N)NC(=O)CNC(=O)[C@@H](NC(=O)[C@H](Cc1c[nH]c2ccccc12)NC(=O)[C@H](CCCNC(=N)N)NC(=O)CNC(=O)CCCC[C@@H]1SC[C@@H]2NC(=O)N[C@@H]21)[C@@H](C)O)C(=O)N[C@@H](CO)C(=O)N[C@@H](C)C(=O)N[C@@H](Cc1c[nH]c2ccccc12)C(=O)N[C@@H](CCCCN)C(=O)N1CCC[C@H]1C(=O)N[C@H](C(=O)N[C@@H](CCCNC(=N)N)C(=O)N[C@@H](CCCNC(=N)N)C(=O)N[C@@H](CCC(=O)O)C(=O)N[C@H](C(=O)N[C@@H](CCC(=O)O)C(=O)N[C@H](C(=O)O)C(C)C)[C@@H](C)O)[C@@H](C)O [HPV E6 #35 (modified)] (Biotin-GRWTGRAMSAWKPTRRETEV-OH; C-terminus assumed) | – | 1 (A450 nm 0-1) | –
2 | CC(C)C[C@H](NC(=O)[C@H](Cc1c[nH]c2ccccc12)NC(=O)[C@H](Cc1c[nH]cn1)NC(=O)[C@H](CCCNC(=N)N)NC(=O)[C@H](CC(C)C)NC(=O)[C@@H](NC(=O)[C@H](Cc1ccccc1)NC(=O)[C@H](CCC(N)=O)NC(=O)[C@H](CCCNC(=N)N)NC(=O)[C@@H](NC(=O)[C@H](CCC(=O)O)NC(=O)CNC(=O)[C@H](CCCNC(=N)N)NC(=O)[C@H](CC(=O)O)NC(=O)[C@@H](NC(=O)[C@H](CC(C)C)NC(=O)[C@H](CCC(=O)O)NC(=O)[C@H](CCCNC(=N)N)NC(=O)CCCC[C@@H]1SC[C@@H]2NC(=O)N[C@@H]21)C(C)C)C(C)C)[C@@H](C)O)C(=O)N[C@@H](CCCCN)C(=O)N[C@H](C(=O)O)C(C)C [Dopamine transporter (Na+-dependent)] (Biotin-RELVDRGEVRQFTLRHWLKV-OH; C-terminus assumed) | – | – | 2 (A450 nm 1-2)
3 | CC[C@H](C)[C@H](NC(=O)[C@H](C)NC(=O)[C@H](CC(C)C)NC(=O)[C@H](Cc1c[nH]c2ccccc12)NC(=O)[C@H](Cc1c[nH]cn1)NC(=O)[C@H](CCC(N)=O)NC(=O)[C@H](CC(C)C)NC(=O)[C@H](CCC(N)=O)NC(=O)[C@H](Cc1ccccc1)NC(=O)[C@H](CCC(N)=O)NC(=O)[C@H](CCCNC(=N)N)NC(=O)[C@@H](NC(=O)[C@H](CC(=O)O)NC(=O)[C@H](CCCNC(=N)N)NC(=O)[C@H](CCC(N)=O)NC(=O)[C@H](C)NC(=O)[C@@H](NC(=O)[C@H](CC(C)C)NC(=O)[C@H](Cc1c[nH]cn1)NC(=O)[C@H](Cc1c[nH]cn1)NC(=O)CCCC[C@@H]1SC[C@@H]2NC(=O)N[C@@H]21)C(C)C)[C@@H](C)CC)C(=O)O [noradrenaline transporter] (Biotin-HHLVAQRDIRQFQLQHWLAI-OH; C-terminus assumed) | – | – | 1 (A450 nm 0-1)
4 | CC[C@H](C)[C@H](NC(=O)[C@H](CCC(N)=O)NC(=O)CCCC[C@@H]1SC[C@@H]2NC(=O)N[C@@H]21)C(=O)N[C@@H](CO)C(=O)N1CCC[C@H]1C(=O)NCC(=O)NCC(=O)N[C@@H](CC(C)C)C(=O)N[C@@H](CCC(=O)O)C(=O)N1CCC[C@H]1C(=O)N1CCC[C@H]1C(=O)N[C@@H](CO)C(=O)N[C@@H](CCC(=O)O)C(=O)N[C@@H](CCCCN)C(=O)N[C@@H](Cc1c[nH]cn1)C(=O)N[C@@H](Cc1ccccc1)C(=O)N[C@@H](CCCNC(=N)N)C(=O)N[C@@H](CCC(=O)O)C(=O)N[C@H](C(=O)N[C@@H](CCC(=O)O)C(=O)N[C@H](C(=O)O)C(C)C)[C@@H](C)O [Tax] | – | 1 (A450 nm 0-1) | –

The next lines start with results.

Row | Classification [3] | Molecule | Classification [1] | Classification [2]
5 | 3 (A450 nm 2-3) | A2AA_HUMAN (modified) (Biotin-HDFRRAFKKILARGDRKRIV; not fully specified) | – | –
6 | 1 (A450 nm 0-1) | CC[C@H](C)[C@H](NC(=O)[C@H](Cc1ccc(O)cc1)NC(=O)[C@H](CC(C)C)NC(=O)[C@H](CCC(N)=O)NC(=O)[C@H](Cc1c[nH]cn1)NC(=O)[C@H](CO)NC(=O)[C@H](C)NC(=O)[C@H](CC(C)C)NC(=O)[C@@H](NC(=O)[C@H](CC(=O)O)NC(=O)[C@H](CCSC)NC(=O)[C@H](Cc1ccccc1)NC(=O)[C@@H]1CCCN1C(=O)[C@H](CCCNC(=N)N)NC(=O)[C@@H](NC(=O)[C@H](CC(C)C)NC(=O)[C@H](CC(N)=O)NC(=O)[C@H](CC(=O)O)NC(=O)[C@@H](NC(=O)[C@H](CO)NC(=O)CCCC[C@@H]1SC[C@@H]2NC(=O)N[C@@H]21)[C@@H](C)O)C(C)C)[C@@H](C)O)C(=O)O [presenilin-2] (Biotin-STDNLVRPFMDTLASHQLYI-OH; C-terminus assumed) | – | –
